Measurements published in patent publication US7417025B2, “Use of poly-α2,8-sialic acid mimetic peptides to modulate NCAM functions” (Centre National de la Recherche Scientifique, priority 2002, dated 2008).

Tests used:
[1] = system: subventricular zone explants (neuronal precursors); test: Subventricular zone (SVZ) explant culture: cell migration in vitro; assay type: cell-based, mouse; conditions: for Rate of migration of the neuronal precursors compared to the corresponding control peptide: FIG. 7, controls reverse p65 and p22
Method: Cultures of SVZ explants were performed as described in Chazal et al., precited. Briefly, 1-day-old mice were killed by rapid decapitation. Brains were dissected out and sectionned by Vibratome (Leica). The SVZ from the lateral wall of the anterior lateral ventricle horn was dissected out in HBSS medium (LIFE TECHNOLOGIES) and cut into 200-300 μm diameter explants. The explants were mixed with Matrigel (BECKTON DICKINSON) and cultured in four-well dishes. After polymerisation, the gel was overlaid with 400 μl of serum-free medium containing B-27 supplement (LIFE TECHNOLOGIES), in the presence or the absence of 40 μM of peptides (p65, p66, reverse p65, p21 or p22) and 70 U of Endo N per milliliter.
After 48 h in culture, explants were examining directly (SVZ) or after overnight fixation with a 4% paraformaldehyde solution in PBS and immunostaining (DRGs). Observation was done using 2, 5×, 5×, 10× and 32× objectives (Axiovert 35M, ZEISS). Images were collected with a video camera (Cool View, PHOTONIC SCIENCE) and analysed using image-processing software (Visiolab1000, BIOCOM). Mean migration distance (calculated on five different experiments, including at least five explants per condition) or mean length of the longest neurite (calculated on two different experiments, including at least eight explants per condition), was the distance in micrometers between the explant edge and the border of the cell migration front. Four measurements were performed for each explant. The significance of the differences between the control and the different experimental conditions was calculated by Student's t test.

[2] = system: GFP positive SVZ cells migrating to the olfactory bulb; test: Transplantation of GFP SVZ explants: cell migration in vivo; set-up: species or system mouse
Method: 100 μm diameter explants of 1-day-old GFP mice SVZ were incubated fifteen minutes in DMEM supplemented with 10% fetal bovine serum in presence of 0.01 M of p65 or reverse peptide and stereotaxically grafted (0.5 μl) into six weeks old mice SVZ as described in Lois and Alvarez-Buylla (Science, 1994, 264, 1145-1 148). Three or four days after the graft, animals were perfused intracardiacally with a 4% paraformaldehyde solution in PBS. Brains were dissected out, postfixed, cryoprotected, and freezed in isopentane. Sagittal serial sections (12 μm) were cut with a Leica microtome and immunostained as described above. GFP cells arriving in the olfactory bulb after three days were observed using UV fluorescence with a 40× objective (Axioscope, ZEISS) and counted on two different experiments (four animals per condition). The significance of the difference between the two conditions was calvalated by Student's t test.
The effect of PSA mimetic peptides on cell migration in vivo was analysed by grafting tissue and evaluating migration of SVZ cells. Small pieces of SVZ tissue (100 μm diameter) from 1-day-old GFP mice were grafted in the SVZ area of adult mice, in the presence of p65, p65 reverse peptide or in the absence of peptide. The results are illustrated in FIG. 8.

[3] = system: 30H12 monoclonal antibody; test: Competitive binding to PSA-NCAM expressing cells (30H12); set-up: dose or concentration left out as unconfirmed
Method: FIGS. 12B, 12C and 12D: competitive binding to PSA-NCAM expressing cells. B: pre-incubation of p65 (1 mM) or p66 (1 mM) with MenB anti-PSA antibody. C: 30H12 anti-PSA antibody without peptide. […]
The specificity of p65 and p66 peptides was tested in a competition assay using anti-PSA antibodies and PSA-NCAM expressing cells. […] The binding specificity was examined in greater detail by testing peptide recognition by another anti-PSA mononclonal antibody (MenB). […] Thus, p65 and p66 mimotopes appear to be specific for a unique (idiotypic) determinant.

| Sequence | Rate of migration of the neuronal precursors compared to the corresponding control peptide [1] | Rate of migration of the neuronal precursors and chain-like arrangement ([1]; SVZ explants in Matrigel, FIG. 4) | Migration of precursors from NCAM −/− mice ([1]; SVZ explants of NCAM −/− mice, FIG. 6) | Concentration from which the optimal effect on cell migration is observed ([1]; dose-response curve) [µM] | PSA-dependence of the migration effect ([1]; with endo N treatment) | Increase of the number of GFP positive cells present in the olfactory bulb by comparison with the control ([2]; 3 days after the graft) [times] | Number of GFP positive cells migrating to the olfactory bulb ([2]; by comparison with the control, from 3 days post-engraftment) | Binding of 30H12 monoclonal antibody to PSA-NCAM expressing cells after pre-incubation with peptide [3] |
| --- | --- | --- | --- | --- | --- | --- | --- | --- |
| CSSVTAWTTGCG [p65] | significant increase | increases the rate of migration | did not reverse the impaired migration | ≥ 0.4 | abolished by endo N treatment | 17 | increases significantly | prevented its binding |
| DSPLVPFIDFHP [p21] | significant decrease | – | – | – | – | – | – | – |
